Measurements: US11725001B2, “Bicyclic compound and use thereof” (SK BIOPHARMACEUTICALS CO., LTD., priority 2019, dated 2023)
pIC50: −log10 of the molar value.

Each compound was assayed against PRMT5-MEP50 enzyme complex (Homo sapiens (Human), UniProt O14744) (assay: PRMT5 enzyme activity in vitro assay (methylation of histone H4R3, ELISA absorbance at 450 nm)). Details: SAM, histone H4 peptide, 2 hours at room temperature, 8 points from 10 μM to 0.128 nM.
Type: biochemical
Method: Method for Measuring Enzyme Activity
In vitro assay: PRMT5-MEP50 enzyme complex, cofactor S-adenosylmethionine (SAM) and histone H4 peptide were reacted in vitro, and methylation of arginine (H4R3)—which is the third amino acid of histone H4—was measured in order to measure the enzyme activity of PRMT5.
S-adenosylmethionine was purchased from NEB (New England Biolabs, USA, Catalog No. B9003S).
Experimental procedure: The histone H4 peptide was diluted with carbonate-bicarbonate buffer and prepared to 100 μg/mL, and then dispensed onto the plate per 100 μL and reacted at 37° C. for 1 hour. PRMT5-MEP50 enzyme complex and S-adenosylmethionine were diluted with histone methyltransferase reaction buffer to prepare 5 μg/mL and 2 μM, respectively, and then 20 μL of PRMT5-MEP50 enzyme complex and 25 μL of S-adenosylmethionine were dispensed onto the plate prepared above. 5 μL of the compound diluted with 10% dimethyl sulfoxide solution was added thereto and reacted at room temperature for 2 hours (final volume=50 μL). […] After preparing the primary antibody by diluting 1:2000 with blocking buffer, 100 μL was added to the plate and reacted at room temperature for 1 hour. […] Then, the absorbance at 450 nm was measured to calculate the IC50 value of the compound. […]

Sequence of PRMT5-MEP50 enzyme complex (O14744 2-637): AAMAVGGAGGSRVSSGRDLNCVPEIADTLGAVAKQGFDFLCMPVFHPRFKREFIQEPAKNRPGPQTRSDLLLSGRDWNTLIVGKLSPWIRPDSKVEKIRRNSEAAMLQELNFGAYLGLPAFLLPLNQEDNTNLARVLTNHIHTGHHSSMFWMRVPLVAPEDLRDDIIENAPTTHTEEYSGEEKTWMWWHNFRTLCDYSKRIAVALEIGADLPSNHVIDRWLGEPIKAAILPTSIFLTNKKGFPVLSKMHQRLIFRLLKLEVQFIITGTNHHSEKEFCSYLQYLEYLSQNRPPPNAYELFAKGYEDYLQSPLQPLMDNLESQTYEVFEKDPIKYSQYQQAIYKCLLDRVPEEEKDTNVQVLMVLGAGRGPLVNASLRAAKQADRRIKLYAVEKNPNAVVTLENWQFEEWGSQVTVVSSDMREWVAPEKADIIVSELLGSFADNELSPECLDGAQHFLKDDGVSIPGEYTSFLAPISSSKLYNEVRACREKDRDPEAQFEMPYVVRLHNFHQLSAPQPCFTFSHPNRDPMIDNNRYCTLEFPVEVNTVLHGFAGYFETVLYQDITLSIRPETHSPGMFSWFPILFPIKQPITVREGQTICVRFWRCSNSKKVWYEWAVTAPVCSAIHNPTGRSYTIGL
Sequence of PRMT5-MEP50 enzyme complex (Q9BQA1 2-342 partner): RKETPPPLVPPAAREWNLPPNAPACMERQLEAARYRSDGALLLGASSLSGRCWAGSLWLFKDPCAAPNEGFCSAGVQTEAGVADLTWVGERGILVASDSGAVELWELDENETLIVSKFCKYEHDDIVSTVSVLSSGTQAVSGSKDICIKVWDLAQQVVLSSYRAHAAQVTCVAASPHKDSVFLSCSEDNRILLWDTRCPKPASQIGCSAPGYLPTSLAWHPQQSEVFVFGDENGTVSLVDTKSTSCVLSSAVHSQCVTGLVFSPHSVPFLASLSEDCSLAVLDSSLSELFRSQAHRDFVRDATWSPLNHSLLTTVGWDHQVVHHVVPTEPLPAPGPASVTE

Compound | pIC50
COc1ccc2c(c1)OCCN(CC(O)CN1CCc3ccccc3C1)C2=O (centres unmarked) [Example 1, 4-[3-(3,4-dihydro-1H-isoquinolin-2-yl)-2-hydroxy-propyl]-8-methoxy-2,3-dihydro-1,4-benzoxazepin-5-one] | 6.00 to 7.00
CCN1C(=O)CN(C[C@H](O)CN2CCc3ccccc3C2)C(=O)c2ccc(Br)cc21 [Example 158, 8-bromo-4-[(2R)-3-(3,4-dihydro-1H-isoquinolin-2-yl)-2-hydroxy-propyl]-1-ethyl-3H-1,4-benzodiazepin-2,5-dione] | 6.00 to 7.00

What follows are compounds tested on SDMA levels in U87MG tumor (assay: Test for in vivo target inhibitory activity (SDMA levels in U87MG tumor)). Details: U87MG tumor implanted subcutaneously in nude mice, oral 25 or 50 mg/kg 1-2 times daily for one week.
Method: Test for In Vivo Target Inhibitory Activity
After U87MG tumor cells were implanted subcutaneously in nude mice, a PRMT5 inhibitor was administered orally (25 or 50 mg/kg) 1-2 times daily for one week, and then the degree to which SDMA levels in the tumor decreased was measured.
Reagents: Bradford's solution (Catalog No. 500-0006) was purchased from Bio-rad (USA). SDMA antibody (Catalog No. 13222s) was purchased from Cell Signaling Technology (USA). SmD3 antibody (Catalog No. ap12451a) was purchased from Abgent (USA), and secondary antibody (Catalog No. ab6721) and TMB substrate (Catalog No. ab210902) were purchased from Abcam (UK).
Experimental procedure: The tumor tissues transplanted into the mice were excised, the cells were lysed, and then quantified with Bradford's solution. 5-10 μg of protein per sample was diluted with carbonate-bicarbonate buffer and dispensed into a 96-well plate and reacted at room temperature for 2 hours. After washing with phosphate buffered saline (PBST) containing 0.05% Tween-20 3 times, 200 μL of PBST containing 5% bovine serum albumin (BSA-PBST) was added and reacted at room temperature for 2 hours. After washing with PBST 3 times, the SDMA antibody and the SmD3 antibody were diluted in BSA-PBST, and 100 μL of each was dispensed onto the plate and reacted at 4° C. overnight. After washing with PBST 3 times the next day, 100 μL of the secondary antibody diluted in BSA-PBST was added and reacted at room temperature for 1 hour. After washing with PBST 3 times, 100 μL of TMB substrate was added and reacted at room temperature for 10-20 minutes, and 100 μL of 1N sulfuric acid solution was added to terminate the reaction. Then, the absorbance at 450 nm was measured to calculate the degree of SDMA inhibition by the compound. (+++: more than 70%, ++: more than 30% and 70% or less, +: 30% or less)

Compound | SDMA inhibition (%)
O=C1c2ccc(CN3CCOCC3)cc2OCCN1C[C@H](O)CN1CCc2ccccc2C1 [Example 22, 4-[(2R)-3-(3,4-dihydro-1H-isoquinolin-2-yl)-2-hydroxy-propyl]-8-(morpholinomethyl)-2,3-dihydro-1,4-benzoxazepin-5-one] | +++ (+++: more than 70%)
CN1CCC(Oc2ccc3c(c2)OCCN(C[C@H](O)CN2CCc4ccccc4C2)C3=O)CC1 [Example 87, 4-[(2R)-3-(3,4-dihydro-1H-isoquinolin-2-yl)-2-hydroxy-propyl]-8-[(1-methyl-4-piperidyl)oxy]-2,3-dihydro-1,4-benzoxazepin-5-one] | +++ (+++: more than 70%)
CCN1CCC(Oc2ccc3c(c2)OCCN(C[C@H](O)CN2CCc4ccccc4C2)C3=O)CC1 [Example 88, 4-[(2R)-3-(3,4-dihydro-1H-isoquinolin-2-yl)-2-hydroxy-propyl]-8-[(1-ethyl-4-piperidyl)oxy]-2,3-dihydro-1,4-benzoxazepin-5-one] | +++ (+++: more than 70%)
O=C1c2ccc(OC3CCN(C4COC4)CC3)cc2OCCN1C[C@H](O)CN1CCc2ccccc2C1 [Example 92, 4-[(2R)-3-(3,4-dihydro-1H-isoquinolin-2-yl)-2-hydroxy-propyl]-8-[[1-(oxetan-3-yl)-4-piperidyl]oxy]-2,3-dihydro-1,4-benzoxazepin-5-one] | +++ (+++: more than 70%)
CN1CCC(Oc2ccc3c(c2)OC(C)(C)CN(C[C@H](O)CN2CCc4ccccc4C2)C3=O)CC1 [Example 112, 4-[(2R)-3-(3,4-dihydro-1H-isoquinolin-2-yl)-2-hydroxy-propyl]-2,2-dimethyl-8-[(1-methyl-4-piperidyl)oxy]-3H-1,4-benzoxazepin-5-one] | +++ (+++: more than 70%)
O=C1c2ccc(Br)cc2CCCN1C[C@H](O)CN1CCc2ccccc2C1 [Example 155, 7-bromo-2-[(2R)-3-(3,4-dihydro-1H-isoquinolin-2-yl)-2-hydroxy-propyl]-4,5-dihydro-3H-2-benzazepin-1-one] | + (+: 30% or less)
